Measured values as given in patent US20120094958A1, “QUINOLINES AS INHIBITORS OF FARNESYL PYROPHOSPHATE SYNTHASE” (NOVARTIS AG, priority 2008, published 2012).
Structures can show the parent of a compound that is named as a salt.

molecular target: T1, FPPS (Farnesyl pyrophosphate synthase) (Homo sapiens, UniProt P14324); assay: FPPS Assay: LC-MS Method; format: biochemical; settings: GPP/IPP 5 μM each, reaction stopped after 10 minutes
T1 sequence (P14324 1-353 isoform P14324-2): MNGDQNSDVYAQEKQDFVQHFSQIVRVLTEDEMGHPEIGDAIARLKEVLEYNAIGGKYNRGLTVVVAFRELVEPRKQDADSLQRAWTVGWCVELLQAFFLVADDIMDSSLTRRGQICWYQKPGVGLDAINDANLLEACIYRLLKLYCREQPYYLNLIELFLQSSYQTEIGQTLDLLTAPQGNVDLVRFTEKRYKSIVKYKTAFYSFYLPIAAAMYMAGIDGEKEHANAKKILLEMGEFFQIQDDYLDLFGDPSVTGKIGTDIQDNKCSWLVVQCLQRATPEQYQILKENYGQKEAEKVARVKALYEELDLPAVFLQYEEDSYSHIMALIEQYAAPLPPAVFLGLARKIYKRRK
Method: Recombinant human Farnesyl Pyrophosphate synthase (FPPS) was cloned, expressed and purified as previously described {J.-M. Rondeau et al., ChemMedChem 2006, 1, 267-271.} and stored as a 10 mg/mL stock solution in 25 mM Tris pH 7.4, 25 mM NaCl, 2 mM DTT (dithiothreitol). Geranyl pyrophosphate (GPP) was purchased from Anawa AG (Switzerland) and stored as a 1 mg/mL solution in 4 parts isopropanol:3 parts ammonia:1 part water. 1-[^3H]Isopentenyl pyrophosphate (IPP), 50 Ci/mmol; 1 Ci/mL, was purchased from Anawa AG and stored in ethanol:ammonia hydroxide 1:1 at −80 C. 1-[^3H] Farnesyl pyrophosphate triammonium salt, 100 Ci/mmol; 1 mCi/mL in 70% ethanol, 0.25 M ammonium bicarbonate was purchased from Anawa AG. Phospholipid-coated 384-well image FlashPlates™ were purchased from PerkinElmer. the assay buffer consisted of 20 mM HEPES pH7.4, 5 mM MgCl2 and 1 mM CaCl2.
Selected compounds are assayed in another FPPS based assay:
Into each well of a 384-well plate, 5 μL of compound in 20% DMSO/water is placed. 25 μL of GPP/IPP (5 μM each in assay buffer) is then added. The reaction is started with the addition of 10 μL of FPPS (diluted 1 to 10000 with assay buffer). After 10 minutes, the reaction is stopped by addition of 10 μL of 2 μM FSPP in 2% DMIPA/IPA. The reaction mixture is then extracted with 50 μL of n-pentanol using vortex mixing. After phase separation, 25 μL of the upper (n-pentanol) layer is transferred to a new 384-well plate and the pentanol is evaporated using a vacuum centrifuge. The dried residue is reconstituted in 50 μL of 0.1% DMIPA/water for analysis by the LC/MS/MS method.
LC/MS/MS analyses are performed on a Micromass Quattro Micro interfaced to an Agilent 1100 binary LC pump. Injection is performed by a Gilson 215/889 autosampler using an injection loop size of 2.5 μL. Chromatography is performed on a Waters 2.1×20 mm Xterra MS C18 5 μm guard column (P/N186000652) contained in a guard column holder (P/N 186000262) using 0.1% DMIPA/methanol as solvent A and 0.1% DMIPA/water as solvent B. The gradient is 5% A from 0.00 to 0.30 min, 50% A at 0.31 min, 80% A at 1.00 min, and 5% A from 1.01 to 2.00 min. The flow rate is 0.3 mL/min and the flow is diverted to waste from 0.00 to 0.50 min and again from 1.20 to 2.00 min.
The MRM transitions monitored are 381^−>79^− for FPP and 397^−>159^− for FSPP at a collision energy of 22 eV and a collision cell pressure of 2.1×10^−3 mbar of Ar. The dwell time per transition is 400 msec with a span of 0.4 Da. The interchannel delay and interscan delay are both 0.02 sec. Other mass spectrometric operating parameters are: capillary, 2.0 kV; cone, 35 V; extractor, 2.0 V, source temp., 100° C.; desolvation gas temp., 250° C.; desolvation gas flow, 650 L/hr; cone gas flow, 25 L/hr; multiplier, 650 V.
The total cycle time per sample is 2.5 minutes. Since the analysis is formatted for 384-well plates, a plate is analyzed in 16 hours. The chromatograms are processed using Quanlynx software, which divides the area of individual FPP peaks by the area of the FSPP peaks (internal standard). The resulting values are reported as the relative response for the corresponding sample well.

| SMILES | IC50 |
| --- | --- |
| O=P(O)(O)c1ccc2cc(-c3ccco3)cc(-c3cccc4ccccc34)c2n1 [Example 27d.ii] | 900 nM |
| O=P(O)(O)c1ccc2cc(-c3ccc4c(c3)OCO4)cc(-c3cccc4ccccc34)c2n1 [Example 27f.ii] | 977 nM |
| O=P(O)(O)c1ccc2cc(-c3cccc(O)c3)cc(-c3cccc4ccccc34)c2n1 [Example 28, [6-(3-Hydroxy-phenyl)-8-naphthalen-1-yl-quinolin-2-yl]-phosphonic acid] | 606 nM |
| CCOC(=O)Nc1cc(-c2cccc3ccccc23)c2nc(C(=O)O)ccc2c1 [Example 29, 6-Ethoxycarbonylamino-8-naphthalen-1-yl-quinoline-2-carboxylic acid] | 37 nM |
| Nc1cc(-c2cccc3ccccc23)c2nc(C(=O)O)ccc2c1 [Example 31, 6-Amino-8-naphthalen-1-yl-quinoline-2-carboxylic acid] | 69 nM |
| O=C(O)c1ccc2cc(I)cc(-c3cccc4ccccc34)c2n1 [Example 32, 6-Iodo-8-naphthalen-1-yl-quinoline-2-carboxylic acid lithium salt] | 160 nM |
| O=C(O)c1ccc2cc(-c3ccsc3)cc(-c3cccc4ccccc34)c2n1 [Example 34, 8-Naphthalen-1-yl-6-thiophen-3-yl-quinoline-2-carboxylic acid] | 100 nM |
| Nc1cc(-c2cccc3ccccc23)c2nc(/C=C/P(=O)(O)O)ccc2c1 [Example 42, [(E)-2-(6-Amino-8-naphthalen-1-yl-quinolin-2-yl)-vinyl]-phosphonic acid] | 9 nM |
| CC(=O)Nc1cc(-c2cccc3ccccc23)c2nc(/C=C/P(=O)(O)O)ccc2c1 [Example 45, [(E)-2-(6-Acetylamino-8-naphthalen-1-yl-quinolin-2-yl)-vinyl]-phosphonic acid] | 26 nM |
| CS(=O)(=O)N(c1cc(-c2cccc3ccccc23)c2nc(/C=C/P(=O)(O)O)ccc2c1)S(C)(=O)=O [Example 47, {(E)-2-[6-(di-methanesulfonyl)amino-8-naphthalen-1-yl-quinolin-2-yl]-vinyl}-phosphonic acid] | 204 nM |
| CC(=O)Nc1cc(-c2cccc3ccccc23)c2nc(-c3nn[nH]n3)ccc2c1 [Example 51, N-[8-Naphthalen-1-yl-2-(2H-tetrazol-5-yl)-quinolin-6-yl]-acetamide] | 48 nM |

Other lines, results leading:

| IC50 | SMILES |
| --- | --- |
| 266 nM | O=P(O)(O)c1ccc2cc(-c3cccs3)cc(-c3cccc4ccccc34)c2n1 [Example 17, (8-Naphthalen-1-yl-6-thiophen-2-yl-quinolin-2-yl)-phosphonic acid] |
| 507 nM | O=P(O)(O)c1ccc2cc(I)cc(-c3cccc4ccccc34)c2n1 [Example 21, (6-Iodo-8-naphthalen-1-yl-quinolin-2-yl)-phosphonic acid] |
| 205 nM | O=P(O)(O)c1ccc2cc(-c3ccsc3)cc(-c3cccc4ccccc34)c2n1 [Example 27c.ii] |
| 24 nM | CCOc1c(N)cc(-c2cccc3ccccc23)c2nc(C(=O)O)ccc12 [Example 30, 6-Amino-5-ethoxy-8-naphthalen-1-yl-quinoline-2-carboxylic acid] |
| 56 nM | CCOc1c(I)cc(-c2cccc3ccccc23)c2nc(C(=O)O)ccc12 [Example 33, 5-Ethoxy-6-iodo-8-naphthalen-1-yl-quinoline-2-carboxylic acid lithium salt] |
| 311 nM | O=C(O)c1ccc2cc(-c3cccs3)cc(-c3cccc4ccccc34)c2n1 [Example 35, 8-Naphthalen-1-yl-6-thiophen-2-yl-quinoline-2-carboxylic acid lithium salt] |
| 217 nM | Cc1cccc2c(-c3cccc4ccc(C(=O)O)nc34)cccc12 [Example 38, 8-(5-Methyl-naphthalen-1-yl)-quinoline-2-carboxylic acid] |
| 267 nM | Nc1cccc2c(-c3cccc4ccc(C(=O)O)nc34)cccc12 [Example 39, 8-(5-Amino-naphthalen-1-yl)-quinoline-2-carboxylic acid] |
| 103 nM | O=[N+]([O-])c1cc(-c2cccc3ccccc23)c2nc(/C=C/P(=O)(O)O)ccc2c1 [Example 43, [(E)-2-(6-Nitro-8-naphthalen-1-yl-quinolin-2-yl)-vinyl]-phosphonic acid] |
| 14 nM | COC(=O)Nc1cc(-c2cccc3ccccc23)c2nc(/C=C/P(=O)(O)O)ccc2c1 [Example 44, [(E)-2-(6-Methoxycarbonylamino-8-naphthalen-1-yl-quinolin-2-yl)-vinyl]-phosphonic acid] |
| 91 nM | CS(=O)(=O)Nc1cc(-c2cccc3ccccc23)c2nc(/C=C/P(=O)(O)O)ccc2c1 [Example 46, [(E)-2-(6-Methanesulfonylamino-8-naphthalen-1-yl-quinolin-2-yl)-vinyl]-phosphonic acid] |
| 12 nM | O=C(Nc1cc(-c2cccc3ccccc23)c2nc(/C=C/P(=O)(O)O)ccc2c1)c1cccnc1 [Example 48, ((E)-2-{8-Naphthalen-1-yl-6-[(pyridine-3-carbonyl)-amino]-quinolin-2-yl}-vinyl)phosphonic acid] |
| 19 nM | CCOC(=O)Nc1cc(-c2cccc3ccccc23)c2nc(-c3nn[nH]n3)ccc2c1 [Example 50, N-[8-Naphthalen-1-yl-2-(2H-tetrazol-5-yl)-quinolin-6-yl]-carbamic acid ethyl ester] |

test system: not given; assay: not given; settings: not given

| melting point | SMILES |
| --- | --- |
| 205 to 208 °C | CCOC(=O)Nc1cc(-c2cccc3ccccc23)c2nc(C(=O)O)ccc2c1 [Example 29, 6-Ethoxycarbonylamino-8-naphthalen-1-yl-quinoline-2-carboxylic acid] |
| 182 to 184 °C | CCOc1c(N)cc(-c2cccc3ccccc23)c2nc(C(=O)O)ccc12 [Example 30, 6-Amino-5-ethoxy-8-naphthalen-1-yl-quinoline-2-carboxylic acid] |
| 164 to 166 °C | O=C(O)c1ccc2cc(-c3ccsc3)cc(-c3cccc4ccccc34)c2n1 [Example 34, 8-Naphthalen-1-yl-6-thiophen-3-yl-quinoline-2-carboxylic acid] |
